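Protocol summary: plate cells (96-well), add compound at 5 concentrations, incubate 48 h, interpolate endpoints linearly. GI50 is the concentration that inhibits growth by half. The concentration for full growth arrest is given as TGI.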
Assays:
Test in all cases: NCI anticancer screen, dose series, 48 h
786-0 renal = system: 786-0 renal
A498 renal = system: A498 renal
A549 NSCLC = system: A549 NSCLC
ACHN renal = system: ACHN renal
CAKI-1 renal = system: CAKI-1 renal
CCRF-CEM leukemia = system: CCRF-CEM leukemia
COLO 205 colon = system: COLO 205 colon
DU-145 prostate = system: DU-145 prostate
EKVX NSCLC = system: EKVX NSCLC
HCC-2998 colon = system: HCC-2998 colon
HCT-116 colon = system: HCT-116 colon
HCT-15 colon = system: HCT-15 colon
HL-60(TB) leukemia = system: HL-60(TB) leukemia
HOP-62 NSCLC = system: HOP-62 NSCLC
HOP-92 NSCLC = system: HOP-92 NSCLC
HS 578T breast = system: HS 578T breast
HT29 colon = system: HT29 colon
IGROV1 ovarian = system: IGROV1 ovarian
KM12 colon = system: KM12 colon
M14 melanoma = system: M14 melanoma
MCF7 breast = system: MCF7 breast
MDA-MB-231 breast = system: MDA-MB-231 breast
MDA-MB-435 = system: MDA-MB-435
MOLT-4 leukemia = system: MOLT-4 leukemia
NCI-H23 lung = system: NCI-H23 lung
NCI-H460 lung = system: NCI-H460 lung
NCI/ADR-RES ovarian = system: NCI/ADR-RES ovarian
OVCAR-3 ovarian = system: OVCAR-3 ovarian
OVCAR-4 ovarian = system: OVCAR-4 ovarian
OVCAR-5 ovarian = system: OVCAR-5 ovarian
OVCAR-8 ovarian = system: OVCAR-8 ovarian
PC-3 prostate = system: PC-3 prostate
RXF 393 renal = system: RXF 393 renal
SF-268 CNS = system: SF-268 CNS
SF-295 CNS = system: SF-295 CNS
SK-MEL-2 melanoma = system: SK-MEL-2 melanoma
SK-MEL-28 melanoma = system: SK-MEL-28 melanoma
SK-MEL-5 melanoma = system: SK-MEL-5 melanoma
SK-OV-3 ovarian = system: SK-OV-3 ovarian
SN12C renal = system: SN12C renal
SNB-19 CNS = system: SNB-19 CNS
SNB-75 CNS = system: SNB-75 CNS
SW-620 colon = system: SW-620 colon
T-47D breast = system: T-47D breast
TK-10 renal = system: TK-10 renal
U251 CNS = system: U251 CNS
UACC-257 melanoma = system: UACC-257 melanoma
UACC-62 melanoma = system: UACC-62 melanoma
UO-31 renal = system: UO-31 renal
BT-549 breast = system: BT-549 breast
K-562 leukemia = system: K-562 leukemia
LOX IMVI melanoma = system: LOX IMVI melanoma
MALME-3M melanoma = system: MALME-3M melanoma
NCI-H522 lung = system: NCI-H522 lung
SF-539 CNS = system: SF-539 CNS
SR leukemia = system: SR leukemia

Compound: COc1cc(NC(C)CCCN)c2ncccc2c1Sc1ccc(Cl)cc1 (configuration not stated)
- GI50 (786-0 renal): 1.89 µM
- TGI (786-0 renal): 3.57 µM
- GI50 (A498 renal): 3.65 µM
- TGI (A498 renal): 16.2 µM
- GI50 (A549 NSCLC): 1.65 µM
- TGI (A549 NSCLC): 3.01 µM
- GI50 (ACHN renal): 1.79 µM
- TGI (ACHN renal): 3.22 µM
- GI50 (CAKI-1 renal): 3.13 µM
- TGI (CAKI-1 renal): 12.3 µM
- GI50 (CCRF-CEM leukemia): 1.77 µM
- TGI (CCRF-CEM leukemia): 4.96 µM
- GI50 (COLO 205 colon): 1.67 µM
- TGI (COLO 205 colon): 3.03 µM
- GI50 (DU-145 prostate): 1.85 µM
- TGI (DU-145 prostate): 3.32 µM
- GI50 (EKVX NSCLC): 2.14 µM
- TGI (EKVX NSCLC): 4.72 µM
- GI50 (HCC-2998 colon): 1.75 µM
- TGI (HCC-2998 colon): 3.17 µM
- GI50 (HCT-116 colon): 1.7 µM
- TGI (HCT-116 colon): 3.27 µM
- GI50 (HCT-15 colon): 1.89 µM
- TGI (HCT-15 colon): 3.67 µM
- GI50 (HL-60(TB) leukemia): 2.05 µM
- TGI (HL-60(TB) leukemia): 3.88 µM
- GI50 (HOP-62 NSCLC): 1.75 µM
- TGI (HOP-62 NSCLC): 3.29 µM
- GI50 (HOP-92 NSCLC): 1.37 µM
- TGI (HOP-92 NSCLC): 3.48 µM
- GI50 (HS 578T breast): 1.67 µM
- TGI (HS 578T breast): 3.85 µM
- GI50 (HT29 colon): 1.9 µM
- TGI (HT29 colon): 3.5 µM
- GI50 (IGROV1 ovarian): 2.31 µM
- TGI (IGROV1 ovarian): 5.31 µM
- GI50 (KM12 colon): 1.77 µM
- TGI (KM12 colon): 3.27 µM
- GI50 (M14 melanoma): 1.77 µM
- TGI (M14 melanoma): 3.34 µM
- GI50 (MCF7 breast): 1.76 µM
- TGI (MCF7 breast): 3.19 µM
- GI50 (MDA-MB-231 breast): 1.42 µM
- TGI (MDA-MB-231 breast): 2.86 µM
- GI50 (MDA-MB-435): 1.86 µM
- TGI (MDA-MB-435): 3.57 µM
- GI50 (MOLT-4 leukemia): 1.84 µM
- TGI (MOLT-4 leukemia): 4.16 µM
- GI50 (NCI-H23 lung): 1.7 µM
- TGI (NCI-H23 lung): 3.3 µM
- GI50 (NCI-H460 lung): 1.8 µM
- TGI (NCI-H460 lung): 3.22 µM
- GI50 (NCI/ADR-RES ovarian): 1.77 µM
- TGI (NCI/ADR-RES ovarian): 3.42 µM
- GI50 (OVCAR-3 ovarian): 1.77 µM
- TGI (OVCAR-3 ovarian): 3.28 µM
- GI50 (OVCAR-4 ovarian): 1.72 µM
- TGI (OVCAR-4 ovarian): 3.1 µM
- GI50 (OVCAR-5 ovarian): 1.73 µM
- TGI (OVCAR-5 ovarian): 3.28 µM
- GI50 (OVCAR-8 ovarian): 1.64 µM
- TGI (OVCAR-8 ovarian): 3 µM
- GI50 (PC-3 prostate): 1.65 µM
- TGI (PC-3 prostate): 3.09 µM
- GI50 (RXF 393 renal): 1.7 µM
- TGI (RXF 393 renal): 3.07 µM
- GI50 (SF-268 CNS): 2.43 µM
- TGI (SF-268 CNS): 6.61 µM
- GI50 (SF-295 CNS): 2.01 µM
- TGI (SF-295 CNS): 4.06 µM
- GI50 (SK-MEL-2 melanoma): 1.85 µM
- TGI (SK-MEL-2 melanoma): 3.4 µM
- GI50 (SK-MEL-28 melanoma): 1.83 µM
- TGI (SK-MEL-28 melanoma): 3.28 µM
- GI50 (SK-MEL-5 melanoma): 1.72 µM
- TGI (SK-MEL-5 melanoma): 3.09 µM
- GI50 (SK-OV-3 ovarian): 1.65 µM
- TGI (SK-OV-3 ovarian): 3.08 µM
- GI50 (SN12C renal): 1.62 µM
- TGI (SN12C renal): 3.06 µM
- GI50 (SNB-19 CNS): 1.8 µM
- TGI (SNB-19 CNS): 3.46 µM
- GI50 (SNB-75 CNS): 1.7 µM
- TGI (SNB-75 CNS): 3.42 µM
- GI50 (SW-620 colon): 1.61 µM
- TGI (SW-620 colon): 3.08 µM
- GI50 (T-47D breast): 1.77 µM
- TGI (T-47D breast): 3.34 µM
- GI50 (TK-10 renal): 2.01 µM
- TGI (TK-10 renal): 3.5 µM
- GI50 (U251 CNS): 1.51 µM
- TGI (U251 CNS): 2.83 µM
- GI50 (UACC-257 melanoma): 1.63 µM
- TGI (UACC-257 melanoma): 3.15 µM
- GI50 (UACC-62 melanoma): 1.75 µM
- TGI (UACC-62 melanoma): 3.33 µM
- GI50 (UO-31 renal): 1.59 µM
- TGI (UO-31 renal): 3.19 µM

Compound: CC#CCCCC1(C)CCCNC1=S (configuration not stated)
- TGI (786-0 renal): > 10 µM
- TGI (A549 NSCLC): > 10 µM
- TGI (ACHN renal): > 10 µM
- TGI (BT-549 breast): > 10 µM
- TGI (CCRF-CEM leukemia): > 10 µM
- TGI (DU-145 prostate): > 10 µM
- TGI (EKVX NSCLC): > 10 µM
- TGI (HCT-15 colon): > 10 µM
- TGI (HL-60(TB) leukemia): > 10 µM
- TGI (HOP-92 NSCLC): > 10 µM
- TGI (HS 578T breast): > 10 µM
- TGI (HT29 colon): > 10 µM
- TGI (IGROV1 ovarian): > 10 µM
- TGI (K-562 leukemia): > 10 µM
- TGI (KM12 colon): > 10 µM
- TGI (LOX IMVI melanoma): > 10 µM
- TGI (M14 melanoma): > 10 µM
- TGI (MALME-3M melanoma): > 10 µM
- TGI (MCF7 breast): > 10 µM
- TGI (MDA-MB-231 breast): > 10 µM
- TGI (MDA-MB-435): > 10 µM
- TGI (MOLT-4 leukemia): > 10 µM
- TGI (NCI-H23 lung): > 10 µM
- TGI (NCI-H460 lung): > 10 µM
- TGI (NCI-H522 lung): > 10 µM
- TGI (NCI/ADR-RES ovarian): > 10 µM
- TGI (OVCAR-3 ovarian): > 10 µM
- TGI (OVCAR-4 ovarian): > 10 µM
- TGI (OVCAR-5 ovarian): > 10 µM
- TGI (OVCAR-8 ovarian): > 10 µM
- TGI (PC-3 prostate): > 10 µM
- TGI (RXF 393 renal): > 10 µM
- TGI (SF-268 CNS): > 10 µM
- TGI (SF-295 CNS): > 10 µM
- TGI (SF-539 CNS): > 10 µM
- TGI (SK-MEL-2 melanoma): > 10 µM
- TGI (SK-MEL-5 melanoma): > 10 µM
- TGI (SK-OV-3 ovarian): > 10 µM
- TGI (SN12C renal): > 10 µM
- TGI (SNB-19 CNS): > 10 µM
- TGI (SNB-75 CNS): > 10 µM
- TGI (SR leukemia): > 10 µM
- TGI (SW-620 colon): > 10 µM
- TGI (T-47D breast): > 10 µM
- TGI (TK-10 renal): > 10 µM
- TGI (U251 CNS): > 10 µM
- TGI (UACC-257 melanoma): > 10 µM
- TGI (UACC-62 melanoma): > 10 µM
- TGI (UO-31 renal): > 10 µM

— PubChem BioAssay (NCI)
